The record followed here is PubChem BioAssay (NCI).

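Results reflect a 48-hour exposure of cells in 96-well plates to compound at five concentrations. At the TGI there is no net growth.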 Where only a bound is given, the exact number is not on record here.

Test systems include SF-295 CNS; NCI-H522 lung; HCT-116 colon; K-562 leukemia; SK-MEL-2 melanoma; BT-549 breast; U251 CNS; UACC-62 melanoma; OVCAR-5 ovarian; OVCAR-3 ovarian; PC-3 prostate; MDA-MB-231 breast; HCT-15 colon; OVCAR-8 ovarian; A549 NSCLC; LOX IMVI melanoma; KM12 colon; M14 melanoma; COLO 205 colon.
Test in all cases: NCI tumour cell line growth inhibition, 48 h

Consider `C=C(O)c1ccccc1C#Cc1ccccc1C(=O)OC`, for which the TGI in the test on SF-295 CNS, in the test with NCI-H522 lung, with HCT-116 colon, with K-562 leukemia, in the test on SK-MEL-2 melanoma and in the test on BT-549 breast was > 10 µM each time. In addition, the TGI with U251 CNS, in the test on UACC-62 melanoma, in the test on OVCAR-5 ovarian, in the test on OVCAR-3 ovarian, in the test on PC-3 prostate and in the test with MDA-MB-231 breast was > 10 µM throughout. For the same compound, the TGI in the test on HCT-15 colon, with OVCAR-8 ovarian, with A549 NSCLC, in the test on LOX IMVI melanoma, in the test with KM12 colon and with M14 melanoma was > 10 µM throughout. In addition, the TGI in the test with COLO 205 colon is > 10 µM.
As to `Clc1ccc(-c2nn3c(CCCCCCCCc4nnc5sc(-c6ccc(Cl)cc6)nn45)nnc3s2)cc1`, the TGI was 46.6 µM in the test on SF-295 CNS; 28.8 µM in the test with NCI-H522 lung; 75 µM in the test on HCT-116 colon; > 100 µM with K-562 leukemia; > 70.5 µM in the test with SK-MEL-2 melanoma; > 79.5 µM in the test with BT-549 breast. For the same compound, the TGI in the test with U251 CNS is 39.8 µM; with UACC-62 melanoma, > 100 µM; in the test on OVCAR-5 ovarian it was > 100 µM; with OVCAR-3 ovarian, 59 µM; in the test on PC-3 prostate it was 69.7 µM; with MDA-MB-231 breast it was > 100 µM. Besides, the TGI in the test on HCT-15 colon is > 100 µM; in the test on OVCAR-8 ovarian, > 94.8 µM; in the test on A549 NSCLC, > 64.5 µM; with LOX IMVI melanoma, 24.5 µM; with KM12 colon, 61.3 µM; in the test on M14 melanoma it was 67.5 µM. In addition, the TGI in the test on COLO 205 colon was > 100 µM.
As for `CN1C2CCC1CC(OC(c1ccccc1)c1ccccc1)C2` (centres undefined), the TGI with SF-295 CNS turned out to be 23.5 µM; in the test on NCI-H522 lung, 28.1 µM; with HCT-116 colon it was 25.1 µM; in the test with K-562 leukemia it was 34.5 µM; with SK-MEL-2 melanoma it was 32.1 µM; in the test on BT-549 breast, 41.2 µM. Besides, the TGI with U251 CNS worked out at 28.9 µM; in the test with UACC-62 melanoma it was 30.4 µM; in the test with OVCAR-5 ovarian, 41.2 µM; in the test on OVCAR-3 ovarian, 47 µM; in the test with PC-3 prostate it was 37.3 µM; in the test with MDA-MB-231 breast it was 32.7 µM. Moreover, the TGI came out at 78.8 µM in the test with HCT-15 colon; 29.9 µM in the test on OVCAR-8 ovarian; 39.7 µM in the test on A549 NSCLC; 29.4 µM in the test on LOX IMVI melanoma; 37.9 µM with KM12 colon; 27.9 µM in the test with M14 melanoma. Further, the TGI with COLO 205 colon was 23.7 µM.
On to `Cc1c(N2C(=O)/C(=C/C=C/c3ccccc3)N=C2c2ccccc2)c(=O)n(-c2ccccc2)n1C`, for which the TGI in the test on SF-295 CNS was 40 µM; in the test on NCI-H522 lung, 32.6 µM; in the test with HCT-116 colon it was > 100 µM; in the test with K-562 leukemia, 75 µM; in the test with SK-MEL-2 melanoma it was 44.5 µM; in the test with BT-549 breast, 40.2 µM. For the same compound, the TGI with U251 CNS worked out at 33 µM; in the test on UACC-62 melanoma, 32 µM; in the test with OVCAR-5 ovarian it was 51.7 µM; with OVCAR-3 ovarian it was 46.6 µM; in the test with PC-3 prostate, 76.9 µM; in the test on MDA-MB-231 breast it was 47.3 µM. Besides, the TGI in the test on HCT-15 colon was 21 µM; in the test on OVCAR-8 ovarian, 77.6 µM; in the test with A549 NSCLC, 69.8 µM; with LOX IMVI melanoma, 52 µM; in the test on KM12 colon, 80.3 µM; in the test with M14 melanoma, > 100 µM. This compound also returned a TGI with COLO 205 colon of 30.3 µM.
In the case of `O=c1c2ccccc2nc2n1NC(c1c(Cl)cccc1Cl)N2c1cccc(Cl)c1` (centres undefined), the TGI in the test with SF-295 CNS is > 100 µM; with NCI-H522 lung, 28.8 µM; in the test with HCT-116 colon it was 11.6 µM; in the test with K-562 leukemia, > 100 µM; in the test with SK-MEL-2 melanoma, > 100 µM; with BT-549 breast, > 100 µM. Besides, the TGI is 5.19 µM with U251 CNS; 22.9 µM in the test with UACC-62 melanoma; 19.1 µM in the test with OVCAR-5 ovarian; 54.2 µM in the test with OVCAR-3 ovarian; 28.1 µM in the test on PC-3 prostate; 9.94 µM in the test on MDA-MB-231 breast. The TGI was > 100 µM in the test with HCT-15 colon; 12 µM with OVCAR-8 ovarian; 22.2 µM in the test on A549 NSCLC; > 100 µM with LOX IMVI melanoma; > 100 µM with KM12 colon; 66.6 µM with M14 melanoma. Besides, the TGI in the test on COLO 205 colon was > 100 µM.
`CCC1(C)C=Cc2c(cc(OC)c3c(=O)c4ccccc4n(C)c23)O1` (centres undefined): the TGI in the test with SF-295 CNS, in the test with NCI-H522 lung, in the test with HCT-116 colon, in the test on K-562 leukemia, in the test on SK-MEL-2 melanoma and in the test with BT-549 breast was > 10 µM in each case. For the same compound, the TGI in the test with U251 CNS, in the test with UACC-62 melanoma, with OVCAR-5 ovarian, in the test with OVCAR-3 ovarian, in the test on PC-3 prostate and in the test on MDA-MB-231 breast was > 10 µM each time. Besides, the TGI in the test with HCT-15 colon, in the test on OVCAR-8 ovarian, in the test with A549 NSCLC, in the test with LOX IMVI melanoma, in the test on KM12 colon and with M14 melanoma was > 10 µM each time. Further, the TGI with COLO 205 colon is > 10 µM.
